Each structure is given as a SMILES string.

The subject of assay [1] is HeLa. Kind of assay: Cytotoxicity against human HeLa cells assessed as inhibition of cell proliferation after 48 hrs by MTT assay. Format: functional, cell-based. In general terms: Tetrazolium dyes change colour on reduction, which living cells bring about.
The nature of assay [2]: Cytotoxicity against human IOSE-144 cells assessed as inhibition of cell proliferation after 48 hrs by MTT assay. Conditions: IOSE-144, 48 h. The format is cell-based.
The subject of another assay is U-87 MG. Kind of assay: Cytotoxicity against human U87 cells assessed as inhibition of cell proliferation after 48 hrs by MTT assay. The format is functional, cell-based, U-87MG ATCC.
The next assay relates to MCF7. Kind of assay: cells. Conditions: Homo sapiens, MCF7, 48 h. The format is functional, cell-based.
For assay [3], the system named is A549. Kind of assay: Cytotoxicity against human A549 cells assessed as inhibition of cell proliferation after 48 hrs by MTT assay. Conditions: A549, 48 h. Format: functional, cell-based.
Assay [4] can be described thus: Cytotoxicity against human 8901 cells assessed as inhibition of cell proliferation after 48 hrs by MTT assay. The format is functional, cell-based.
Assay [5] has as its system A549. Kind of assay: Potency index, ratio of 5-fluorouracil IC50 to test compound IC50 for human A549 cells. Format: functional.
The subject of assay [6] is HeLa. The assay is described as follows: Potency index, ratio of 5-fluorouracil IC50 to test compound IC50 for human HeLa cells. The format is functional.

Description for MCF7: Cytotoxicity against human MCF7 cells assessed as inhibition of cell proliferation after 48 hrs by MTT assay

For `CC(C)(O)CCC[C@@](C)(O)[C@H]1CC[C@]2(C)[C@@H]1[C@H](O)C[C@@H]1[C@@]3(C)Cc4nccnc4C(C)(C)[C@@H]3CC[C@]12C`, the IC50 in the assay with HeLa [1] was more than 100 µM; in assay [2], more than 100 µM; in the assay on U-87 MG, 38.1 µM; in the assay on MCF7 it was 17.7 µM; in the assay on A549 [3] it was 8.93 µM; in assay [4], 13.2 µM. Also, the “Ratio IC50” value in the assay on A549 [5] is given as 2.6.

As for `CC1(C)CCC[C@](C)([C@H]2CC[C@]3(C)[C@@H]2[C@H](O)C[C@@H]2[C@@]4(C)Cc5cn[nH]c5C(C)(C)[C@@H]4CC[C@]23C)O1`, the IC50 in the assay with HeLa [1] was 11.7 µM; in assay [2], more than 100 µM; in the assay with U-87 MG, 26.2 µM; with MCF7 it was 18.9 µM; with A549 [3] it was 9.62 µM; in assay [4] it was 13.5 µM. Further, in the assay on HeLa [6], the “Ratio IC50” value was determined as 2.5.

`Cc1ncc2c(n1)C(C)(C)[C@@H]1CC[C@]3(C)[C@H](C[C@@H](O)[C@@H]4[C@@H]([C@@]5(C)CCCC(C)(C)O5)CC[C@]43C)[C@@]1(C)C2`: the IC50 in the assay with HeLa [1] was more than 100 µM; in assay [2], more than 100 µM; in the assay with U-87 MG, 86.3 µM; with MCF7, 83 µM; in the assay with A549 [3], more than 100 µM; in assay [4], more than 100 µM.

Regarding `CC1(C)CCC[C@](C)([C@H]2CC[C@]3(C)[C@@H]2[C@H](O)C[C@@H]2[C@@]4(C)C=C(O)C(=O)C(C)(C)[C@@H]4CC[C@]23C)O1`, the IC50 with HeLa [1] is 25 µM; in assay [2], more than 100 µM; in the assay with U-87 MG, 20.2 µM; in the assay with MCF7 it was 23.6 µM; in the assay with A549 [3] it was 40 µM; in assay [4], 50.1 µM.

For `COC(C)(C)CCC[C@@](C)(O)[C@H]1CC[C@]2(C)[C@@H]1[C@H](O)C[C@@H]1[C@@]3(C)C=C(O)C(=O)C(C)(C)[C@@H]3CC[C@]12C`, the IC50 with HeLa [1] is 39 µM; in assay [2] it was more than 100 µM; in the assay with U-87 MG it was 20.7 µM; with MCF7, 35.7 µM; in the assay on A549 [3], 21.6 µM; in assay [4] it was 25.9 µM.

For orientation: IC50 means the concentration that inhibits the measured activity by half.
